Results: patent US12139458B2, “(2,5-dioxopyrrolidin-1-yl)(phenyl)-acetamide derivatives and their use in the treatment of neurological diseases” (UNIWERSYTET JAGIELLONSKI, priority 2019, dated 2024)

Key:
[1] = system: male Swiss albino mice (CD-1); assay: Subcutaneous pentylenetetrazole seizure test (scPTZ); type: in vivo; details: 0.5 h, mice; for ED50 / responders at 100 mg/kg: Mus musculus, ip; for scPTZ: number of mice protected/number of mice tested / responders at 100 mg/kg: screening, 100 mg/kg i.p.; for responders at 100 mg/kg: read-out: scPTZ: number of mice protected/number of mice tested (converted)
Experimental: (§1) The male Swiss albino mice (CD-1) weighing 18-26 g were used. All procedures were carried out in accordance with applicable Polish and international guidelines on the ethics of animal testing, after obtaining appropriate institutional approval. The substances were administered intraperitoneally (i.p.), in 1% aqueous solution of Tween, as single injections with a volume of 10 ml/kg, 30 minutes before the given test. Screening was performed on groups consisted of 4 mice. The average effective dose (ED50) in given test and toxic dose in the rotarod test (TD50) was estimated based on the results obtained in 3-4 groups of animals consisting of 6 mice. All tests were carried out based on the procedures described in the specialist literature.
In the scPTZ test, seizures were induced by subcutaneous administration of pentylenetetrazole (PTZ) at a dose of 100 mg/kg. This caused clonic seizures with accompanying loss of the righting reflex. Test compounds were administered 30 minutes before the experiment. After PTZ administration, the animals were placed individually in transparent containers and observed for a period of 30 minutes for the occurrence of clonic seizures. During this time, the latency of the first onset of clonic seizures, defined as clonus of the whole body lasting at least 3 seconds with loss of the righting reflex and the number of seizure episodes during the test were noted and compared with control group. The absence of clonic convulsions within the observed time period was interpreted as the compound's ability to protect against PTZ-induced seizures (Ferreri, G.; Chimirri, A.; Russo, E.; Gitto, R.; Gareri, P.; De Sarro, A.; De Sarro, G. Pharmacol. Biochem. Behav. 2004, 77, 85-94; Łączkowski, K.; Sałat, K.; Misiura, K.; Podkowa, A.; Malikowska, N. J. Enzyme Inhib. Med. Chem. 2016, 31, 1576-82).
(§2) To perform a statistical evaluation of the results, one-way ANOVA variance analysis and Dunnett's post hoc test (multiple comparison test) were used. The value at the significance level p<0.05 was considered statistically significant.

[2] = Rotarod test (motor coordination); type: in vivo; details: male, Swiss albino (CD-1), mouse, in vivo, ip, mice
Experimental: as §1, with “All” for “The male Swiss albino mice (CD-1) weighing 18-26 g were used. All”, “The average effective dose (ED50) in given test and toxic dose in the rotarod test (TD50) was estimated based on the results obtained in 3-4 groups of animals consisting of 6 mice.” left out
Mice were trained the day before the actual experiment. They were placed individually on a 2 cm diameter rod rotating at 10 revolutions per minute (rpm). During each training session, the animals remained on the rod for 3 minutes. The experiment was carried out 30 minutes after administration of the compounds. Motor coordination was tested at the speed of the rotating bar: 10 rpm during 60 seconds. Motor impairments were defined as the inability to remain on the rotating rod for 1 min.
as §2

[3] = system: male Swiss albino mice (CD-1); assay: Psychomotor seizure test 6 Hz (32 mA); type: in vivo; details: 0.5 h, mice; for ED50 / responders at 100 mg/kg: Mus musculus, ip; for 6 Hz (32 mA): number of mice protected/number of mice tested / responders at 100 mg/kg: screening, 100 mg/kg i.p.; for responders at 100 mg/kg: read-out: 6 Hz (32 mA): number of mice protected/number of mice tested (converted)
Experimental: as §1
In the 6 Hz test, seizures were induced by an electric stimulus of 32 mA and/or 44 mA and a frequency of 6 pulses per second. An electrical pulse was generated using an electric shock generator (ECT Unit 57800; Ugo Basile, Gemonio, Italy) and delivered to the animal using ocular electrodes. Before starting the test, the eye surface was gently moistened with a solution of local anesthetic (1% lidocaine solution). The study was conducted 30 minutes after intraperitoneal administration of the compounds at various doses. An electrical pulse was delivered continuously for a period of 3 seconds, followed by observation of the animal for a period of 10 seconds. During this time, immobility or stun associated with rearing, forelimb clonus, twitching of the vibrissae and Straub's tail were observed. These symptoms persist throughout the observation period, indicating the occurrence of psychomotor seizures in mice. Mice resuming normal behavior within 10 s after stimulation were considered as protected (Barton, M. E.; Klein, B. D.; Wolf, H. H.; White, H. S. Epilepsy Res. 2001, 47, 217-227; Wojda, E.; Wlaź, A.; Patsalos, P. N.; Łuszczki, J. J. Epilepsy Res. 2009, 86, 163-174).
as §2

[4] = system: male Swiss albino mice (CD-1); assay: Psychomotor seizure test 6 Hz (44 mA); type: in vivo; details: 0.5 h, mice; for 6 Hz (44 mA): number of mice protected/number of mice tested: screening, 100 mg/kg i.p.
Experimental: as §1, with “All” for “The male Swiss albino mice (CD-1) weighing 18-26 g were used. All”, “The average effective dose (ED50) in given test and toxic dose in the rotarod test (TD50) was estimated based on the results obtained in 3-4 groups of animals consisting of 6 mice.” left out
In the 6 Hz test, seizures were induced by an electric stimulus of 32 mA and/or 44 mA and a frequency of 6 pulses per second. […] Before starting the test, the eye surface was gently moistened with a solution of local anesthetic (1% lidocaine solution). The study was conducted 30 minutes after intraperitoneal administration of the compounds at various doses. An electrical pulse was delivered continuously for a period of 3 seconds, followed by observation of the animal for a period of 10 seconds. During this time, immobility or stun associated with rearing, forelimb clonus, twitching of the vibrissae and Straub's tail were observed. These symptoms persist throughout the observation period, indicating the occurrence of psychomotor seizures in mice.
as §2

[5] = system: male Swiss albino mice (CD-1); assay: Maximal electroshock seizure test (MES); type: in vivo; details: 0.5 h, mice; for ED50 / responders at 100 mg/kg: Mus musculus, ip; for responders at 100 mg/kg / MES: number of mice protected/number of mice tested: screening, 100 mg/kg i.p.; for responders at 100 mg/kg: read-out: MES: number of mice protected/number of mice tested (converted)
Experimental: as §1
In the MES test, the seizures were induced by an electrical stimulus lasting of 0.2 s duration, 500 V voltage and 25 mA intensity. The electrical stimuli was generated using an electric shock generator (Rodent shocker, Type 221, Hugo Sachs Elektronik, Germany) and delivered to the animal using electrodes placed on the auricles. The study was conducted 30 minutes after intraperitoneal administration of the compounds at various doses. During the experiment, the number of animals that experienced a seizure episode in the form of tonic extension of the hind limbs was counted (Kamiński, K.; Rapacz, A.; Łuszczki, J. J.; Latacz, G.; Obniska, J.; Kieć-Kononowicz, K.; Filipek, B. Bioorg. Med. Chem. 2015, 23, 2548-2561; Castel-Branco, M. M.; Alves, G. L.; Figueiredo, I. V.; Falcão, A. C.; Caramona, M. M. Methods Find. Exp. Clin. Pharmacol. 2009, 31, 101-106).
as §2

Compound | ED50 [1] [mg/kg] | scPTZ: number of mice protected/number of mice tested [1] | TD50 at 0.5 h [2] [mg/kg] | ED50 [3] [mg/kg] | 6 Hz (32 mA): number of mice protected/number of mice tested [3] | melting point [°C] | 6 Hz (44 mA): number of mice protected/number of mice tested [4] | ED50 [5] [mg/kg] | responders at 100 mg/kg [5] [%] | responders at 100 mg/kg [3] [%] | MES: number of mice protected/number of mice tested [5] | ED50 ([4]; Mus musculus, ip) [mg/kg] | responders at 100 mg/kg [1] [%]
O=C(C(c1ccccc1)N1C(=O)CCC1=O)N1CCN(c2ccccc2)CC1 (racemic) [Compound 2, 1-(2-Oxo-1-phenyl-2-(4-phenylpiperazin-1-yl)ethyl)pyrrolidine-2,5-dione] | 100 | ¾ | > 300 | 83.5 | ¾ | 156.7 to 157.4 | 2/4 | 91.1 | 100 | – | – | – | –
O=C(C(c1ccccc1)N1C(=O)CCC1=O)N1CCN(c2cccc(Cl)c2)CC1 (racemic) [Compound 3, 1-(2-(4-(3-Chlorophenyl)piperazin-1-yl)-2-oxo-1-phenylethyl)pyrrolidine-2,5-dione] | 52.6 | ¾ | 144 | 39.5 | – | 128.1 to 129 | ¾ | 36.9 | 100 | 100 | – | – | –
O=C(C(c1ccccc1)N1C(=O)CCC1=O)N1CCN(c2cc(Cl)cc(Cl)c2)CC1 (racemic) [Compound 4, 1-(2-(4-(3,5-Dichlorophenyl)piperazin-1-yl)-2-oxo-1-phenylethyl)pyrrolidine-2,5-dione] | > 100 | ¾ | > 300 | 17.7 | – | 163.8 to 165.2 | – | 68.5 | – | 100 | ¾ | – | –
Cc1cccc(N2CCN(C(=O)C(c3ccccc3)N3C(=O)CCC3=O)CC2)c1 (racemic) [Compound 5, 1-(2-Oxo-1-phenyl-2-(4-(m-tolyl)piperazin-1-yl)ethyl)pyrrolidine-2,5-dione] | 57.6 | ¾ | 171 | 35.5 | – | 188.7 to 192.1 | 2/4 | 37.2 | – | 100 | ¾ | – | –
O=C(C(c1ccccc1)N1C(=O)CCC1=O)N1CCN(c2cccc(C(F)F)c2)CC1 (racemic) [Compound 9, 1-(2-Oxo-1-phenyl-2-(4-(3-(difluoromethyl)phenyl)piperazin-1-yl)ethyl)pyrrolidine-2,5-dione] | 94.3 | – | 274 | 63 | – | 156.4 to 157.6 | – | 97.7 | – | – | – | 196 | –
O=C(C(c1ccccc1)N1C(=O)CCC1=O)N1CCN(c2cccc(OC(F)(F)F)c2)CC1 (racemic) [Compound 10, 1-(2-Oxo-1-phenyl-2-(4-(3-(trifluoromethoxy)phenyl)piperazin-1-yl)ethyl)pyrrolidine-2,5-dione] | < 60 | – | 74 | 38.3 | – | 100.3 to 101.6 | ¾ | 41.7 | 100 | 100 | – | – | 50
O=C(C(c1ccccc1)N1C(=O)CCC1=O)N1CCN(c2cccc(-c3ccccc3)c2)CC1 (racemic) [Compound 13, 1-(2-(4-([1,1′-Biphenyl]-3-yl)piperazin-1-yl)-2-oxo-1-phenylethyl)pyrrolidine-2,5-dione] | < 100 | – | 73.6 | 26.2 | – | 114.1 to 115.4 | 4/4 | 43.9 | 100 | 100 | – | – | 50
O=C(C(c1ccc(F)cc1)N1C(=O)CCC1=O)N1CCN(c2cccc(C(F)(F)F)c2)CC1 (racemic) [Compound 14, 1-(1-(4-Fluorophenyl)-2-oxo-2-(4-(3-(trifluoromethyl)phenyl)piperazin-1-yl)ethyl)pyrrolidine-2,5-dione] | < 100 | – | > 300 | 48.3 | ¾ | 88.8 to 90.7 | – | 56.4 | 100 | – | – | – | 50
O=C([C@@H](c1ccccc1)N1C(=O)CCC1=O)N1CCN(c2cccc(Cl)c2)CC1 [(R)-3, (R)-1-(2-(4-(3-chlorophenyl)piperazin-1-yl)-2-oxo-1-phenylethyl)pyrrolidine-2,5-dione] | 78.3 | ¾ | 223 | 49.3 | – | 167.3 to 168.1 | – | 57.7 | 100 | 100 | – | – | –
O=C([C@@H](c1ccccc1)N1C(=O)CCC1=O)N1CCN(c2cccc(OC(F)(F)F)c2)CC1 [(R)-10, (R)-1-(2-Oxo-1-phenyl-2-(4-(3-(trifluoromethoxy)phenyl)piperazin-1-yl)ethyl)pyrrolidine-2,5-dione] | < 60 | – | > 150 | 12.8 | – | 168.2 to 169.1 | – | 22.6 | 100 | 100 | – | – | 50
O=C([C@H](c1ccccc1)N1C(=O)CCC1=O)N1CCN(c2cccc(C(F)(F)F)c2)CC1 [(S)-6, (S)-1-(2-Oxo-1-phenyl-2-(4-(3-(trifluoromethyl)phenyl)piperazin-1-yl)ethyl) pyrrolidine-2,5-dione] | 75.4 | ¾ | > 300 | > 130 | – | – | ¼ | 68.5 | – | 50 | ¾ | – | –
